Measurements as given in patent publication US5028605A, “8-alkylaminoimidazo(1,2-a)pyrazines and derivatives, their preparation and their application in therapy” (l'Universite de Montpellier I, priority 1986, dated 1991).

System: duodenum
Assay: Antispasmodic activity: barium chloride-induced contraction of isolated rat duodenum (Magnus)
Conditions: barium chloride 10^-4 M, isolated rat duodenum, 37° C.; mean of 5 to 6 determinations
Description: Fragments of duodenum are removed from male rats (200 g), fasted for 24 hours and killed by decapitation, and are mounted, after being washed, in a thermostatted (37° C.) isolated organ cell and maintained in survival in Tyrode's solution according to Magnus's classical technique.
The spasmogenic agent used is barium chloride (10^-4 M).
In the first instance, the spasmogenic agent is added to the nutrient bath and, as soon as the contraction of the organ reaches its maximum, the relaxant agent is added to the medium. Working in relation to a fixed concentration of barium chloride with variable concentrations of relaxant, the ED50 of the latter, capable of reducing the induced contraction by 50%, is determined.
The results expressed in Table IV below show the ratio ED50 Theo/ED50 product, established on the basis of the mean of the results of 5 to 6 determinations per product (ED50theophylline=8×10^-4 M).

`CCNc1ncc(Cl)n2ccnc12` [Compound 12, 5-Chloro-8-ethylaminoimidazo[1,2-a]pyrazine] was tested. Which “ED50 Theo/ED50 product (antispasmodic activity)” value did it give?
The value was 27.

System: histamine-induced bronchoconstriction, guinea pigs
Assay: Antibronchospastic activity: histamine-induced bronchospasm in anesthetized guinea pigs
Type: in vivo, guinea pig
Conditions: intravenous, 30 seconds before histamine; mean of 5 to 8 determinations
Description: Guinea pigs of both sexes weighing between 400 and 600 g are anesthetized with ethyl carbamate ([…] i.p.). After tracheotomy, the animal is placed under artificial respiration at a constant flowrate (Palmer pump 1 m1/100 g×60/min). A take-off at the tracheal cannula enables the volume of air to be gaged at each inhalation by means of a Marey drum. Bronchospasm is induced by intraveneous (jugular) administration of histamine. For each animal, the dose of histamine (8 to 12 μg/kg) inducing an increase in the recording trace equal to double its initial value is determined. The dose adopted should provide three identical responses at intervals of 10 minutes.
The test product is administered intraveneously and then, 30 seconds later, histamine is administered again.

For `Brc1cn2c(Br)cnc2c(N2CCCCC2)n1` [Compound 38, 3,6-dibromo-8-piperidylimidazo[1,2-a]pyrazine], which “ED50 Theo/ED50 product (bronchospasm induced in guinea pigs)” value is on record?
The value was 1.1.

Which “ED50 Theo/ED50 product (bronchospasm induced in guinea pigs)” value does the source give for `Brc1cn2ccnc2c(NCc2ccco2)n1` [Compound 36, 6-bromo-8-furfurlaminoimidazo[1,2-a]pyrazine] here?
The value was under 1.

How did the “ED50 Theo/ED50 product (bronchospasm induced in guinea pigs)” value turn out when `CCOC(=O)c1cn2ccnc(N3CCOCC3)c2n1` [Compound 21, ethyl 8-morpholinylimidazo[1,2-a]pyrazine-2-carboxylate] was run?
The value was under 1.

`CCOC(=O)Cc1cn2cc(Br)nc(N)c2n1` [Compound 32, ethyl 8-amino-6-bromoimidazo[1,2-a]pyrazine-2-acetate] was tested. Which “ED50 Theo/ED50 product (bronchospasm induced in guinea pigs)” value did it give?
Its value is 1.6.

How did the “ED50 Theo/ED50 product (bronchospasm induced in guinea pigs)” value turn out when `CCOC(=O)c1cn2ccnc(N3CCCCC3)c2n1` [Compound 20, ethyl 8-piperidylimidazo[1,2-a]pyrazine-2-carboxylate] was run?
The value was 1.

With `CCOC(=O)c1cn2cc(Br)nc(N3CCOCC3)c2n1` [Compound 29, ethyl 6-bromo-8-morpholinylimidazo[1,2-a]pyrazine-2-carboxylate] as the compound, how does the “ED50 Theo/ED50 product (bronchospasm induced in guinea pigs)” value read?
Its value is 1.

With `Nc1nccn2c(Br)cnc12` [Compound 5, 8-amino-3-bromoimidazo[1,2-a]pyrazine] as the compound, how does the “ED50 Theo/ED50 product (bronchospasm induced in guinea pigs)” value read?
The value was 2.

For `CCOC(=O)c1cn2cc(Br)nc(N)c2n1` [Compound 22, ethyl 8-amino-6-bromoimidazo[1,2-a]pyrazine-2-carboxylate], which “ED50 Theo/ED50 product (bronchospasm induced in guinea pigs)” value is on record?
The value was 1.5.

How did the “ED50 Theo/ED50 product (bronchospasm induced in guinea pigs)” value turn out when `CCOC(=O)Cc1cn2cc(Br)nc(NC)c2n1` [Compound 33, Ethyl 6-bromo-8-methylaminoimidazo[1,2-a]pyrazine-2-acetate] was run?
The value was 1.

Which “ED50 Theo/ED50 product (bronchospasm induced in guinea pigs)” value does the source give for `CCOC(=O)c1cn2ccnc(NC)c2n1` [Compound 18, ethyl 8-methylaminoimidazo[1,2-a]pyrazine-2-carboxylate] here?
Its value is 1.

With `CCCNc1nc(Br)cn2cc(C(=O)OCC)nc12` [Compound 25, ethyl 6-bromo-8-propylaminoimidazo[1,2-a]pyrazine-2-carboxylate] as the compound, how does the “ED50 Theo/ED50 product (bronchospasm induced in guinea pigs)” value read?
The value was under 1.

`CCNc1nc(Br)cn2cc(C(=O)OCC)nc12` [Compound 24, ethyl 6-bromo-8-ethylaminoimidazo[1,2-a]pyrazine-2-carboxylate] was tested. Which “ED50 Theo/ED50 product (bronchospasm induced in guinea pigs)” value did it give?
Its value is 1.

Which “ED50 Theo/ED50 product (bronchospasm induced in guinea pigs)” value does the source give for `CNc1nc(Br)cn2cc(C(N)=O)nc12` [Compound 31, 6-Bromo-8-methylaminoimidazo[1,2-a]pyrazine-2-carboxamide] here?
The value was 1.

Which “ED50 Theo/ED50 product (bronchospasm induced in guinea pigs)” value does the source give for `CNC(=O)c1nc2c(NC)nc(Cl)c(Cl)n2c1Cl` [Compound 34, 3,5,6-Trichloro-8-methylamino-N-methylimidazo[1,2-a]pyrazine-2-carboxamide] here?
The value was 1.2.

With `N#Cc1cn2cc(Br)nc(N3CCOCC3)c2n1` [Compound 35, 6-Bromo-8-morpholinoimidazo[1,2-a]pyrazine-2-carbonitrile] as the compound, how does the “ED50 Theo/ED50 product (bronchospasm induced in guinea pigs)” value read?
Its value is under 1.

`CCNc1nc(Br)cn2c(Br)cnc12` [Compound 15, 3,6-dibromo-8-ethylaminoimidazo[1,2-a]pyrazine] was tested. Which “ED50 Theo/ED50 product (bronchospasm induced in guinea pigs)” value did it give?
Its value is 1.6.

For `CCOC(=O)c1cn2cc(Br)nc(N3CCCCC3)c2n1` [Compound 28, ethyl 6-bromo-8-piperidylimidazo[1,2-a]pyrazine-2-carboxylate], which “ED50 Theo/ED50 product (bronchospasm induced in guinea pigs)” value is on record?
Its value is under 1.

Which “ED50 Theo/ED50 product (bronchospasm induced in guinea pigs)” value does the source give for `Brc1cn2c(Br)cnc2c(N2CCOCC2)n1` [Compound 16, 3,6-dibromo-8-morpholinoimidazo[1,2-a]pyrazine] here?
The value was 1.

`CCOC(=O)c1cn2cc(Br)nc(NCCO)c2n1` [Compound 30, ethyl 6-bromo-8-(2-hydroxyethylamino)imidazo[1,2-a]pyrazine-2-carboxylate] was tested. Which “ED50 Theo/ED50 product (bronchospasm induced in guinea pigs)” value did it give?
The value was under 1.

With `Brc1cn2ccnc2c(N2CCOCC2)n1` [Compound 11, 6-bromo-8-morpholinoimidazo[1,2-a]pyrazine] as the compound, how does the “ED50 Theo/ED50 product (bronchospasm induced in guinea pigs)” value read?
Its value is 1.

How did the “ED50 Theo/ED50 product (bronchospasm induced in guinea pigs)” value turn out when `CCOC(=O)c1cn2cc(Br)nc(NC)c2n1` [Compound 23, ethyl 6-bromo-8-methylaminoimidazo[1,2-a]pyrazine-2-carboxylate] was run?
The value was 1.

With `CNc1nc(Br)cn2c(Br)cnc12` [Compound 14, 3,6-dibromo-8-methylaminoimidazo[1,2-a]pyrazine] as the compound, how does the “ED50 Theo/ED50 product (bronchospasm induced in guinea pigs)” value read?
Its value is 1.9.

`Brc1cn2c(Br)cnc2c(NCc2ccco2)n1` [Compound 37, 3,6-dibromo-8-furfurylaminoimidazo[1,2-a]pyrazine] was tested. Which “ED50 Theo/ED50 product (bronchospasm induced in guinea pigs)” value did it give?
Its value is 1.4.

`CCCCNc1nc(Br)cn2cc(C(=O)OCC)nc12` [Compound 26, ethyl 6-bromo-8-butylaminoimidazo[1,2-a]pyrazine-2-carboxylate] was tested. Which “ED50 Theo/ED50 product (bronchospasm induced in guinea pigs)” value did it give?
The value was under 1.

For `Nc1nc(Br)cn2c(Br)cnc12` [Compound 13, 8-Amino-3,6-dibromoimidazo[1,2-a]pyrazine], which “ED50 Theo/ED50 product (bronchospasm induced in guinea pigs)” value is on record?
Its value is 3.5.

Which “ED50 Theo/ED50 product (bronchospasm induced in guinea pigs)” value does the source give for `CCCNc1nccn2cc(C(=O)OCC)nc12` [Compound 19, ethyl 8-propylaminoimidazo[1,2-a]pyrazine-2-carboxylate] here?
Its value is under 1.

With `CCOC(=O)c1cn2cc(Br)nc(NC(C)CC)c2n1` (centres unmarked) [Compound 27, ethyl 6-bromo-8-sec-butylaminoimidazo[1,2-a]pyrazine-2-carboxylate] as the compound, how does the “ED50 Theo/ED50 product (bronchospasm induced in guinea pigs)” value read?
Its value is under 1.

System: guinea pig trachea
Assay: Isolated guinea pig trachea: anti-contractional activity against carbachol
Conditions: carbachol 10^-4 M, isolated guinea pig trachea; mean of 5 to 6 determinations
Description: Guinea pigs of both sexes weighing on average 400 to 600 g are sacrificed, and the tracheas are removed and placed at 37° C. in an oxygenated environment (95% O2 -5% CO2) in Krebs fluid of the following composition (mM): NaCl (116), MgSO4 (1.2), KCl (3.7), CaCl2 (2.6), KH2 PO4 (2.2), NaHCO3 (24.9), glucose (10). The tracheal segments are then mounted horizontally between two hooks, one of which is fixed to the base of the isolated organ cell and the other is attached to a myograph under a tension of 0.5 g. The organ is left at rest for one hour and is subjected to four washes. The contraction-inducing reagent (carbachol) is added at a concentration (10^-4 M) greater than the concentration giving the maximum effect. After stabilization of the contractional effect, gradually increasing accumulative amounts of the test products are added to the cell. The bronchodilatory effect is measured as the percentage inhibition of the maximal contraction and EC50 represents the concentration inhibiting this concentration by 50%.

Which “EC50 Theo/EC50 product (anti-contractional activity, trachea)” value (“EC50 Theo/EC50 product” for short) does the source give for `Nc1nccn2c(Br)cnc12` [Compound 5, 8-amino-3-bromoimidazo[1,2-a]pyrazine] here?
The value was 11.

With `c1cn2ccnc2c(N2CCOCC2)n1` [Compound 4, 8-Morpholinoimidazo[1,2-a]pyrazine] as the compound, how does the “EC50 Theo/EC50 product” value read?
Its value is under 1.

With `Brc1cn2ccnc2c(N2CCOCC2)n1` [Compound 11, 6-bromo-8-morpholinoimidazo[1,2-a]pyrazine] as the compound, how does the “EC50 Theo/EC50 product” value read?
Its value is under 1.

How did the “EC50 Theo/EC50 product” value turn out when `CCNc1nccn2c(Br)cnc12` [Compound 7] was run?
Its value is 5.

With `CCNc1nccn2ccnc12` [Compound 3, 8-ethylaminoimidazo[1,2-a]pyrazine] as the compound, how does the “EC50 Theo/EC50 product” value read?
Its value is 1.

Which “EC50 Theo/EC50 product” value does the source give for `CNc1nccn2ccnc12` [Compound 2, 8-methylaminoimidazo[1,2-a]pyrazine] here?
The value was under 1.

For `Nc1nccn2ccnc12` [Compound 1, 8-aminoimidazo[1,2-a]pyrazine], which “EC50 Theo/EC50 product” value is on record?
Its value is 1.5.

`c1coc(CNc2nccn3ccnc23)c1` [Compound 39, 8-furfurylaminoimidazo[1,2-a]pyrazine] was tested. Which “EC50 Theo/EC50 product” value did it give?
The value was under 1.

System: mice
Assay: Motor activity: spontaneous activity in mice (neurosedative effect)
Type: in vivo, mouse
Conditions: 55 μmol/kg intraperitoneally, male mice, 50 minutes
Description: The measurement of the neurosedative effect is based on the test of activity measurements in mice. […] Five minutes after the administration, the animals are placed in activity-measuring cages, which record their movements digitally by means of the interruption of beams of light. The results are recorded in Table IX and expressed as the percentage variation (increase or decrease ) in activity compared with the controls during a period of 50 minutes following the administration.

`CCOC(=O)c1cn2cc(Br)nc(NC)c2n1` [Compound 23, ethyl 6-bromo-8-methylaminoimidazo[1,2-a]pyrazine-2-carboxylate] was tested. Which “spontaneous activity - % variation compared with the controls, decrease (.dwnarw.)” value did it give?
Its value is 43%.

Same assay, conditions: 166 μmol/kg intraperitoneally, male mice, 50 minutes

For `CCOC(=O)c1cn2cc(Br)nc(NC)c2n1` [Compound 23, ethyl 6-bromo-8-methylaminoimidazo[1,2-a]pyrazine-2-carboxylate], which “spontaneous activity - % variation compared with the controls, decrease (.dwnarw.)” value is on record?
Its value is 56%.
